From PubChem BioAssay AID2060904 (Molecular Pharmacology Branch, DTP, NCI, 2025)

Test system: 349418-098-R-PDC complex spheroid viability
Assay: Anticancer human tumor 349418-098-R-PDC patient-derived lung adenocarcinoma cell line growth inhibition [RAS]
Details: for IC50: curve of first compound; for viability, T/C: stronger effect = lower value
Outline: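 Tumour cells grown as complex spheroids with HUVEC endothelial cells and mesenchymal stem cells, treated with RAS pathway inhibitor combinations. Each agent spans half-log steps from near clinical Cmax, or 10 microM where Cmax is unknown.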

[1] = second compound 0.000949 µM, first compound 0.00316 µM
[2] = second compound 0.000949 µM, first compound 0.01 µM
[3] = second compound 0.000949 µM, first compound 0.0316 µM
[4] = second compound 0.000949 µM, first compound 0.1 µM
[5] = second compound 0.000949 µM, first compound 0.316 µM
[6] = second compound 0.000949 µM, first compound 1 µM
[7] = second compound 0.003 µM, first compound 0.00316 µM
[8] = second compound 0.003 µM, first compound 0.01 µM
[9] = second compound 0.003 µM, first compound 0.0316 µM
[10] = second compound 0.003 µM, first compound 0.1 µM
[11] = second compound 0.003 µM, first compound 0.316 µM
[12] = second compound 0.003 µM, first compound 1 µM
[13] = second compound 0.00949 µM, first compound 0.00316 µM
[14] = second compound 0.00949 µM, first compound 0.01 µM
[15] = second compound 0.00949 µM, first compound 0.0316 µM
[16] = second compound 0.00949 µM, first compound 0.1 µM
[17] = second compound 0.00949 µM, first compound 0.316 µM
[18] = second compound 0.00949 µM, first compound 1 µM
[19] = second compound 0.03 µM, first compound 0.00316 µM
[20] = second compound 0.03 µM, first compound 0.01 µM
[21] = second compound 0.03 µM, first compound 0.0316 µM
[22] = second compound 0.03 µM, first compound 0.1 µM
[23] = second compound 0.03 µM, first compound 0.316 µM
[24] = second compound 0.03 µM, first compound 1 µM
[25] = second compound 0.0949 µM, first compound 0.00316 µM
[26] = second compound 0.0949 µM, first compound 0.01 µM
[27] = second compound 0.0949 µM, first compound 0.0316 µM
[28] = second compound 0.0949 µM, first compound 0.1 µM
[29] = second compound 0.0949 µM, first compound 0.316 µM
[30] = second compound 0.0949 µM, first compound 1 µM
[31] = second compound 0.3 µM, first compound 0.00316 µM
[32] = second compound 0.3 µM, first compound 0.01 µM
[33] = second compound 0.3 µM, first compound 0.0316 µM
[34] = second compound 0.3 µM, first compound 0.1 µM
[35] = second compound 0.3 µM, first compound 0.316 µM
[36] = second compound 0.3 µM, first compound 1 µM
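Further: spheroids exposed to compound for seven days before viability readout.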

SMILES: CC1(C)CCC(Nc2ncc(C(F)(F)F)c(-c3c[nH]c4c(P(C)(C)=O)c(C#N)ccc34)n2)CN1 (stereo unspecified) + C=CC(=O)N1CCN(c2nc(OCC3CCCN3C)nc3c(F)c(-c4nc(N)cc(C)c4C(F)(F)F)c(Cl)cc23)C(C)C1
- IC50 (second compound 0.00316 µM): 1.25 nM
- IC50 (second compound 0.01 µM): 1.19 nM
- IC50 (second compound 0.0316 µM): < 0.949 nM
- IC50 (second compound 0.1 µM): 1.07 nM
- IC50 (second compound 0.316 µM): 1.16 nM
- IC50 (second compound 1 µM): 1.27 nM
- viability, T/C (second compound 0.00316 µM, first compound 0.000949 µM): 57.1%
- viability, T/C (second compound 0.00316 µM, first compound 0.003 µM): 27.2%
- viability, T/C (second compound 0.00316 µM, first compound 0.00949 µM): 15.7%
- viability, T/C (second compound 0.00316 µM, first compound 0.03 µM): 9.16%
- viability, T/C (second compound 0.00316 µM, first compound 0.0949 µM): 9.76%
- viability, T/C (second compound 0.00316 µM, first compound 0.3 µM): 8.19%
- viability, T/C (second compound 0.01 µM, first compound 0.000949 µM): 56.4%
- viability, T/C (second compound 0.01 µM, first compound 0.003 µM): 24.6%
- viability, T/C (second compound 0.01 µM, first compound 0.00949 µM): 16.1%
- viability, T/C (second compound 0.01 µM, first compound 0.03 µM): 9.39%
- viability, T/C (second compound 0.01 µM, first compound 0.0949 µM): 12.1%
- viability, T/C (second compound 0.01 µM, first compound 0.3 µM): 7.38%
- viability, T/C (second compound 0.0316 µM, first compound 0.000949 µM): 44%
- viability, T/C (second compound 0.0316 µM, first compound 0.003 µM): 23.3%
- viability, T/C (second compound 0.0316 µM, first compound 0.00949 µM): 18.3%
- viability, T/C (second compound 0.0316 µM, first compound 0.03 µM): 11.6%
- viability, T/C (second compound 0.0316 µM, first compound 0.0949 µM): 11.7%
- viability, T/C (second compound 0.0316 µM, first compound 0.3 µM): 8.91%
- viability, T/C (second compound 0.1 µM, first compound 0.000949 µM): 53.1%
- viability, T/C (second compound 0.1 µM, first compound 0.003 µM): 25.3%
- viability, T/C (second compound 0.1 µM, first compound 0.00949 µM): 12.4%
- viability, T/C (second compound 0.1 µM, first compound 0.03 µM): 14.6%
- viability, T/C (second compound 0.1 µM, first compound 0.0949 µM): 13.2%
- viability, T/C (second compound 0.1 µM, first compound 0.3 µM): 8.82%
- viability, T/C (second compound 0.316 µM, first compound 0.000949 µM): 54.9%
- viability, T/C (second compound 0.316 µM, first compound 0.003 µM): 29.1%
- viability, T/C (second compound 0.316 µM, first compound 0.00949 µM): 14.6%
- viability, T/C (second compound 0.316 µM, first compound 0.03 µM): 12.8%
- viability, T/C (second compound 0.316 µM, first compound 0.0949 µM): 13.3%
- viability, T/C (second compound 0.316 µM, first compound 0.3 µM): 9.31%
- viability, T/C (second compound 1 µM, first compound 0.000949 µM): 58.9%
- viability, T/C (second compound 1 µM, first compound 0.003 µM): 24.2%
- viability, T/C (second compound 1 µM, first compound 0.00949 µM): 15.7%
- viability, T/C (second compound 1 µM, first compound 0.03 µM): 14.2%
- viability, T/C (second compound 1 µM, first compound 0.0949 µM): 10.3%
- viability, T/C (second compound 1 µM, first compound 0.3 µM): 7.97%

SMILES: C=CC(=O)Nc1cc(Nc2nccc(-c3cn(C)c4ccccc34)n2)c(OC)cc1N(C)CCN(C)C + CCn1c(-c2cc(N3CCN(C)CC3)cnc2C(C)OC)c2c3cc(ccc31)-c1csc(n1)CC(NC(=O)C1CC1C)C(=O)N1CCCC(N1)C(=O)OCC(C)(C)C2
- IC50 (second compound 0.000949 µM): > 1000 nM
- IC50 (second compound 0.003 µM): > 1000 nM
- IC50 (second compound 0.00949 µM): > 1000 nM
- IC50 (second compound 0.03 µM): > 1000 nM
- IC50 (second compound 0.0949 µM): > 1000 nM
- IC50 (second compound 0.3 µM): > 1000 nM
- viability, T/C [1]: 101%
- viability, T/C [2]: 94.8%
- viability, T/C [3]: 112%
- viability, T/C [4]: 109%
- viability, T/C [5]: 96.8%
- viability, T/C [6]: 76%
- viability, T/C [7]: 112%
- viability, T/C [8]: 95.8%
- viability, T/C [9]: 94.4%
- viability, T/C [10]: 98.7%
- viability, T/C [11]: 95%
- viability, T/C [12]: 70.3%
- viability, T/C [13]: 100%
- viability, T/C [14]: 88.5%
- viability, T/C [15]: 94.8%
- viability, T/C [16]: 75.8%
- viability, T/C [17]: 98.6%
- viability, T/C [18]: 75.7%
- viability, T/C [19]: 100%
- viability, T/C [20]: 107%
- viability, T/C [21]: 107%
- viability, T/C [22]: 102%
- viability, T/C [23]: 92.1%
- viability, T/C [24]: 65.3%
- viability, T/C [25]: 105%
- viability, T/C [26]: 101%
- viability, T/C [27]: 97.8%
- viability, T/C [28]: 105%
- viability, T/C [29]: 86.7%
- viability, T/C [30]: 72.8%
- viability, T/C [31]: 98.1%
- viability, T/C [32]: 101%
- viability, T/C [33]: 108%
- viability, T/C [34]: 102%
- viability, T/C [35]: 109%
- viability, T/C [36]: 77.6%

SMILES: O=C(c1ccc(F)c(F)c1Nc1ccc(I)cc1F)N1CC(O)([C@@H]2CCCCN2)C1 + CCn1c(-c2cc(N3CCN(C)CC3)cnc2C(C)OC)c2c3cc(ccc31)-c1csc(n1)CC(NC(=O)C1CC1C)C(=O)N1CCCC(N1)C(=O)OCC(C)(C)C2
- IC50 (second compound 0.000949 µM): < 3.16 nM
- IC50 (second compound 0.003 µM): < 3.16 nM
- IC50 (second compound 0.00949 µM): < 3.16 nM
- IC50 (second compound 0.03 µM): < 3.16 nM
- IC50 (second compound 0.0949 µM): < 3.16 nM
- IC50 (second compound 0.3 µM): < 3.16 nM
- viability, T/C [1]: 25.6%
- viability, T/C [2]: 15.3%
- viability, T/C [3]: 12.3%
- viability, T/C [4]: 7.55%
- viability, T/C [5]: 6.32%
- viability, T/C [6]: 4.06%
- viability, T/C [7]: 26.8%
- viability, T/C [8]: 17.7%
- viability, T/C [9]: 11%
- viability, T/C [10]: 7.55%
- viability, T/C [11]: 5.82%
- viability, T/C [12]: 4.4%
- viability, T/C [13]: 20%
- viability, T/C [14]: 7.54%
- viability, T/C [15]: 7.52%
- viability, T/C [16]: 5.46%
- viability, T/C [17]: 5.26%
- viability, T/C [18]: 4.12%
- viability, T/C [19]: 14.1%
- viability, T/C [20]: 8.8%
- viability, T/C [21]: 6.96%
- viability, T/C [22]: 5.38%
- viability, T/C [23]: 5.09%
- viability, T/C [24]: 4.3%
- viability, T/C [25]: 9.09%
- viability, T/C [26]: 6.88%
- viability, T/C [27]: 5.8%
- viability, T/C [28]: 5.07%
- viability, T/C [29]: 5.29%
- viability, T/C [30]: 4.24%
- viability, T/C [31]: 11.8%
- viability, T/C [32]: 7.65%
- viability, T/C [33]: 5.68%
- viability, T/C [34]: 5.13%
- viability, T/C [35]: 4.83%
- viability, T/C [36]: 4.09%
